Test results taken from patent US8901301B2, “Pyrrolo[2,3-]pyridine kinase inhibitors” (Plexxikon Inc., priority 2009, dated 2014).

Legend:
A375 cells = assay: Cell growth inhibition (Cell Titer Glo), A375; assay type: cell-based; conditions: Homo sapiens, A-375, 72 h; B-Raf V600E cell line, 3 days
Experimental: (§1) Compounds are assessed in a variety of cell based assays, employing cells with or without B-Raf V600E mutation, for example cell lines with B-Raf V600E mutation (A375 and COLO205), as well as tumorigenic cell lines with wild-type B-RAF (SW620 and SK-MEL-2). Reagent and assay conditions are as follows:
A375 cells growth medium: • Dulbecco's modified Eagle's medium, 4 mM L-glutamine, 4.5 g/L D-glucose, 10% fetal bovine serum.
(§2) SK-MEL-2 cells growth medium: • Minimum Eagle essential medium, 2 mM L-glutamine, 1.5 g/L sodium bicarbonate, 0.1 mM non-essential amino acids, 1.0 mM sodium pyruvate, 10% fetal bovine serum. • On day 1, cells are seeded in growth media in 200 μL per well in a 96-well polystyrene tissue culture plate at 2,000 cells per well (A375, COLO205, SK-MEL-2) or 5,000 cells per well for SW620, and incubated at 37° C. and 5% CO2 overnight. • On day 2, compound at 4 mM in dimethyl sulfoxide is serially diluted 1:4 (10 μL with 30 μL dimethyl sulfoxide) seven times for a total of 8 concentration points. For each dilution point a 1 μL aliquot is added to a well containing cells (highest dilution point at 20 μM), with 1 μL of dimethyl sulfoxide as a negative control (each sample at 0.5% dimethyl sulfoxide). The cells are incubated for 3 days at 37° C. in 5% CO2. • On day 5, Cell Titer Glo (Promega) is thawed and added 100 μL to each well and the plate shaken for 1-2 minutes. The plates are incubated for 10 minutes at room temperature, then […] signal is read (e.g. on Safire reader). The measured fluoresence correlates directly with cell number, such that the reading as a function of compound concentration is used to determine the IC50 value.

COLO205 cells = assay: Cell growth inhibition (Cell Titer Glo), COLO205; assay type: cell-based; conditions: Homo sapiens, COLO 205, 72 h; B-Raf V600E cell line, 3 days
Experimental: as §1
COLO205 cells growth medium: • RPMI 1640, 2 mM L-glutamine, 1.5 g/L sodium bicarbonate, 4.5 g/L D-glucose, 10 mM HEPES, 1.0 mM sodium pyruvate, 10% fetal bovine serum.
as §2

SW620 cells = assay: Cell growth inhibition (Cell Titer Glo), SW620; assay type: cell-based; conditions: Homo sapiens, SW-620, 72 h; wild-type B-RAF cell line, 3 days
Experimental: as §1
SW620 cells growth medium: • Leibovitz's L-15 medium, 2 mM L-glutamine, 10% fetal bovine serum.
as §2

Hgk = Hgk (Homo sapiens, UniProt O95819); assay: Biochemical inhibitory activity, other protein kinases: Hgk; conditions: listing of the kinase means IC50 <1 μM
Kdr = Kdr (Homo sapiens, UniProt P35968); assay: Biochemical inhibitory activity, other protein kinases: Kdr; conditions: listing of the kinase means IC50 <1 μM
[1] = Relative solubility by turbidity in aqueous buffers; assay type: physicochemical
Experimental: As an indication of relative solubility, the turbidity of compounds in aqueous solutions is assessed. To assess possible compound properties in different physiological compartments, such as stomach, intestine, and blood, a series of aqueous buffers with varying pH is used. Thus each compound is diluted into four different physiologically relevant buffers and solution turbidity is measured by spectrophotometry.
Compounds are dissolved at a concentration of 25 mM in dimethyl sulfoxide, then serially diluted 1:1 into a 96 well plate, diluting 10 times in pure dimethyl sulfoxide, with the final well of each row a dimethyl sulfoxide blank. In an assay plate, 99 μL of appropriate buffer is added to each well, and 1 μL of each sample dilution is added to the buffer, achieving a range of final total concentrations in aqueous solutions having different pH. The buffers used are Simulated Gastric Fluid (SGF-pH 1.5) 0.5M NaCl, pH 1.5; Simulated Intestinal fluid (SIF-pH 4.5 and pH 6.8) 0.05M NaH2PO4, pH 4.5 and 6.8; and Hepes Buffer (HEPES-pH 7.4) 10 mM HEPES, 150 mM NaCl, pH 7.4. Control compounds pyrene, estriol and propranolol HCl are also assessed. Plates are spun and then mixed for 1 minute, and the absorbance is read using a Tecan Safire II to read wavelengths in the visible range (490, 535, and 650 nm) at four locations per well, reflecting the degree of turbidity present. The average optical density for each wavelength in each well is graphed vs. compound concentration, and the concentration at which the curve crosses a threshold O.D. of 0.01 for each wavelength is reported as the endpoint turbidity assay result. The average of the three wavelengths is used to compare turbidity of compounds. Compounds are considered to have low solubility if the threshold concentration is <31.3 μM, moderate solubility if the threshold concentration is 31.3 μM to 250 μM, and high solubility if the threshold concentration is >250 μM.

CYP2D6 = target: T1, CYP2D6 (Homo sapiens, UniProt P10635); assay: CYP inhibition (fluorescent substrate), CYP2D6; assay type: in vitro ADME; conditions: substrate AMMC; read-out: Cyp IC50 (μM) 2D6
T1 construct: purchased BD Biosciences
Experimental: CYP (Cytochrome P450) enzymes are the major drug metabolizing enzymes present in the liver. The inhibition of CYP enzyme activity (IC50) for each of CYP1A2, CYP2C19, CYP2C9, CYP2D6, CYP3A4(BFC) and CYP3A4(BQ) is determined for compounds, where inhibition of metabolism of a known substrate leads to a decrease in the fluorescence of the metabolized product. The fluorescence of the product is monitored as a function of compound concentration. Compounds are dissolved in dimethyl sulfoxide to a concentration of 100 mM. These are diluted 1 μL into 82 μL of acetonitrile. An 11 μL aliquot of this solution is then added to 204 μL of cofactor mix (1.3% NADPH Regeneration system Solution A, 1.04% NADPH Regeneration system Solution B from BD Biosciences, 5% acetonitrile and 0.05% dimethyl sulfoxide). These are then serially diluted 1:1 (160 μL to 160 μL co-factor mix) for a total of 10 points. A 10 μL aliquot of this final mixture is dispensed into 384 well assay plates and incubated for 10 minutes at 37° C. […] Assay plates are incubated at 37° C. (CYP1A2-15 min; CYP2C9-45 min; CYP2C19, 2D6 and 3A4-30 min) and read in a Tecan Safire 2 plate reader (CYP1A2, 2C19 and 3A4 409 ex/460 em; CYP2C9 and 2D6 409 ex/530 em). The signal versus compound concentration is used to determine the IC50. The enzymes and substrates for this assay are obtained from BD Biosciences.

[2] = Relative solubility by turbidity in aqueous buffers; assay type: physicochemical; conditions: pH 1.4 as headed (Simulated Gastric Fluid)

T1 sequence (P10635 whole entry): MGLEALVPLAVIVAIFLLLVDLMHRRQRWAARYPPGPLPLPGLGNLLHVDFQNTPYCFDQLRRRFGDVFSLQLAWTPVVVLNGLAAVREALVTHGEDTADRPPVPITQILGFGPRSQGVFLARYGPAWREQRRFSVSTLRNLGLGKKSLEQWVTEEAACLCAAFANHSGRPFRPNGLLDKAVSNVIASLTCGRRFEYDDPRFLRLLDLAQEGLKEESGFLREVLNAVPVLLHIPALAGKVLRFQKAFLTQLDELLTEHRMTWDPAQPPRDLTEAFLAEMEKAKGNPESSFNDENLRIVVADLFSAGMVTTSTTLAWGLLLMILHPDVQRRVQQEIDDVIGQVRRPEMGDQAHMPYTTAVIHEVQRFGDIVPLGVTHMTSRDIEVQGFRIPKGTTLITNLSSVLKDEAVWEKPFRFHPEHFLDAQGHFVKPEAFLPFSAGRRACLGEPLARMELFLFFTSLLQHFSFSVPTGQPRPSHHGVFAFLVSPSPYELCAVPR
Chain of Kdr (P35968 20-1356, species assumed): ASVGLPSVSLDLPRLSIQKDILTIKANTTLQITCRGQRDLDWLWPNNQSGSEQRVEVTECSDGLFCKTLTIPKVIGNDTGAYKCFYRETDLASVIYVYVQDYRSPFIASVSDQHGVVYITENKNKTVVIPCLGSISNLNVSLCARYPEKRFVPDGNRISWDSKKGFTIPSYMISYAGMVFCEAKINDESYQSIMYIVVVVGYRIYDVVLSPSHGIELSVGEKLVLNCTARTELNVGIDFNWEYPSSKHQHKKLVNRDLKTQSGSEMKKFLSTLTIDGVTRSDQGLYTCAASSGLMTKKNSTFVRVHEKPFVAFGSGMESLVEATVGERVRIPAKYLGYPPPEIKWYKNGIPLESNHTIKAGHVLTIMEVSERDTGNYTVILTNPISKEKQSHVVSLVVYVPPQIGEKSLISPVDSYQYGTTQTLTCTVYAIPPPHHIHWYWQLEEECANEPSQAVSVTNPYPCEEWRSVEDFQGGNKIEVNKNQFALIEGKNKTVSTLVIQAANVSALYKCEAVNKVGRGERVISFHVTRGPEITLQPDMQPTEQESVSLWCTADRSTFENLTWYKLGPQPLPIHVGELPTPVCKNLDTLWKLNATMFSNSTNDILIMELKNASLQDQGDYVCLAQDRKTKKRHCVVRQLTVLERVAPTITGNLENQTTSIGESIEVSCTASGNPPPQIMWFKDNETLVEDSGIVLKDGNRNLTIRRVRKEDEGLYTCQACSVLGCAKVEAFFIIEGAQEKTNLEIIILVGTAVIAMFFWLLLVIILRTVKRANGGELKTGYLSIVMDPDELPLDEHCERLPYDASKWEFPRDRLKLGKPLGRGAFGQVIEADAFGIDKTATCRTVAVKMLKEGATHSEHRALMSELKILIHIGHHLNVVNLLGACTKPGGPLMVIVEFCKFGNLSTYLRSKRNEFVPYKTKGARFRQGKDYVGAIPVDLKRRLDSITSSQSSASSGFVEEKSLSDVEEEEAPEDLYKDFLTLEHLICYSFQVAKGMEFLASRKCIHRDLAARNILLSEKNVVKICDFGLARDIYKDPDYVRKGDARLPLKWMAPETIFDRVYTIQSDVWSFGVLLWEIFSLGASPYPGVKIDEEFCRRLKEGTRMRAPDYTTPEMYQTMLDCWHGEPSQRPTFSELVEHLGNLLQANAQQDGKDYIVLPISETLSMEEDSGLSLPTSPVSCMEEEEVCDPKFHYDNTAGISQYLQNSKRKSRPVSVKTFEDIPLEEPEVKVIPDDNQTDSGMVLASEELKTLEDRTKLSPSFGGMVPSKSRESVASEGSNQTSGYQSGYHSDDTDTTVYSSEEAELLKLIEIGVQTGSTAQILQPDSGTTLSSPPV
Chain of Hgk (O95819 whole entry, species assumed): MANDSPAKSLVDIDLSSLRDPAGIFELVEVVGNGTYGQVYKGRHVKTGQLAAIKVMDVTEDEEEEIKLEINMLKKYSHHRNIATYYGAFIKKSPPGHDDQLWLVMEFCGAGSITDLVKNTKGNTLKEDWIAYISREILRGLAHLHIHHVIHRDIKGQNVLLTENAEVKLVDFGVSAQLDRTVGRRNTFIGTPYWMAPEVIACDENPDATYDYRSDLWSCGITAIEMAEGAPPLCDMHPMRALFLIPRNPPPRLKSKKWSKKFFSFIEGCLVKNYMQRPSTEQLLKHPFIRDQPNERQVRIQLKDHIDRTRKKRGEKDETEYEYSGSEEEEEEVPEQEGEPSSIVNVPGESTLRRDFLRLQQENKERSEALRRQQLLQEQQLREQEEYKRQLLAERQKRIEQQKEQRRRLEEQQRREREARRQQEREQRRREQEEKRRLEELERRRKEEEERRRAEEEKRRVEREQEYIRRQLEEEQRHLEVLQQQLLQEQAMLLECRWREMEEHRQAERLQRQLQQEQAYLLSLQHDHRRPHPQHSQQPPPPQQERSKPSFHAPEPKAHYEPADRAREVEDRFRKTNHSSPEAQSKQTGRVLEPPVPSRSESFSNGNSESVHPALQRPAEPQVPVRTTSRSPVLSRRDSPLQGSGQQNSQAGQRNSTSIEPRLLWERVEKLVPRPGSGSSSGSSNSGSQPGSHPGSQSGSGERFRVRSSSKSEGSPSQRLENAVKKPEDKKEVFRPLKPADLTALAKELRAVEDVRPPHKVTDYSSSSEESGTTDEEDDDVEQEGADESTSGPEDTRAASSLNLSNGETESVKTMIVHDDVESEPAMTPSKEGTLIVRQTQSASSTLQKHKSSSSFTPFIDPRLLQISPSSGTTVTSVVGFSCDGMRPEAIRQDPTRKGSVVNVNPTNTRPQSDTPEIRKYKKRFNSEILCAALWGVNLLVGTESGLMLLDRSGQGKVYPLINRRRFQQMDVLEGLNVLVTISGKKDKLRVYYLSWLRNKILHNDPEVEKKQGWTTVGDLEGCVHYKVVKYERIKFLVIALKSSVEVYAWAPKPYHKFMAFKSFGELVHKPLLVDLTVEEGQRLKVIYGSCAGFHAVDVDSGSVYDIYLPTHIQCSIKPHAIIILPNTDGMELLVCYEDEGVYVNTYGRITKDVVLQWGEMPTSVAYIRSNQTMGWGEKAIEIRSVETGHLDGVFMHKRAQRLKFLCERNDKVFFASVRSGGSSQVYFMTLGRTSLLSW

N#Cc1cnc2[nH]cc(C(=O)c3c(F)ccc(NS(=O)(=O)c4cc(F)ccc4F)c3F)c2c1 [Compound P-0004, N-[3-(5-cyano-1H-pyrrolo[2,3-b]pyridine-3-carbonyl)-2,4-difluoro-phenyl]-2,5-difluoro-benzenesulfonamide]
IC50 (A375 cells): < 1 µM
IC50 (COLO205 cells): < 1 µM
IC50 (SW620 cells): > 20 µM
Kinase having IC50 of <1 μM (Hgk): Hgk
Kinase having IC50 of <1 μM (Kdr): Kdr
turbidity threshold (L, M, H) 4.5 ([1]; pH 4.5 (Simulated Intestinal fluid)): M (moderate solubility if the threshold concentration is 31.3 μM to 250 μM)
turbidity threshold (L, M, H) 6.8 ([1]; pH 6.8 (Simulated Intestinal fluid)): M (moderate solubility if the threshold concentration is 31.3 μM to 250 μM)
turbidity threshold (L, M, H) 7.4 ([1]; pH 7.4 (Hepes Buffer)): M (moderate solubility if the threshold concentration is 31.3 μM to 250 μM)
IC50 (CYP2D6): > 10 µM
turbidity threshold (L, M, H) 1.4 [2]: M (moderate solubility if the threshold concentration is 31.3 μM to 250 μM)
